Experimental data as given in patent US4231958A, “Ureylene phenylene anionic naphthalenesulfonic acids” (American Cyanamid Company, priority 1979, dated 1980).
Where a name gives a salt, the structure may show the parent alone.

What was measured:
[1] = test system: shunt pathway activated by cobra venom factor; assay: Test Code 036 (C-Shunt inhibitor), lysis of human erythrocytes in autologous serum, cobra venom factor; assay type: cell-based; conditions: serial twofold dilution assay; higher well number indicates higher activity
From the text: (§1) An active inhibitor protects C2 from C1 and C4; (ii) Test Code 035 (C3-C9 inhibitor)--This test determines the ability of the late components of human complement (C3-C9) to lyse EAC 142 in the presence of appropriate dilutions of the test compound. An active inhibitor protects EAC 142 from lysis by human C3-C9; (iii) Test Code 036 (C-Shunt inhibitor)--In this test human erythrocytes rendered fragile are lysed in autologous serum via the shunt pathway activated by cobra venom factor in the presence of appropriate dilutions of the test compound. Inhibition of the shunt pathway results in failure of lysis; (iv) Forssman Vasculitis Test--Here, the well known complement dependent lesion, Forssman vasculitis, is produced in guinea pigs by intradermal injection of rabbit anti-Forssman antiserum. The lesion is measured in terms of diameter, edema and hemorrhage and the extent to which a combined index of these is inhibited by prior intraperitoneal injection of the test compound at 200 mg/kg is then reported, unless otherwise stated; (v) Forssman Shock Test--Lethal shock is produced in guinea pigs by an i.v. injection of anti-Forssman antiserum and the harmonic mean death time of treated guinea pigs is compared with that of simultaneous controls; (vi) Complement Level Reduction Test--In this test, the above dosed guinea pigs, or others, are bled for serum and the complement level is determined in undiluted serum by the capillary tube method of U.S. Pat. No. 3,876,376 and compared to undosed control guinea pigs; and (vii) Cap 50 Test--Here, appropriate amounts of the test compound are added to a pool of guinea pig serum in vitro, after which the undiluted serum capillary tube assay referred to above is run. The concentration of compound inhibiting 50% is reported.

[2] = test system: late components of human complement (C3-C9); assay: Test Code 035 (C3-C9 inhibitor), lysis of EAC 142; assay type: biochemical; conditions: serial twofold dilution assay; higher well number indicates higher activity
From the text: as §1

activated human C1 = target: T1, activated human C1 (Homo sapiens, UniProt P09871); assay: Test Code 026 (C1-inhibitor); assay type: biochemical; conditions: serial twofold dilution assay; higher well number indicates higher activity
T1 construct: cleavage of fluid-phase human C2 in presence of C4
T1 sequence (P09871 16-688): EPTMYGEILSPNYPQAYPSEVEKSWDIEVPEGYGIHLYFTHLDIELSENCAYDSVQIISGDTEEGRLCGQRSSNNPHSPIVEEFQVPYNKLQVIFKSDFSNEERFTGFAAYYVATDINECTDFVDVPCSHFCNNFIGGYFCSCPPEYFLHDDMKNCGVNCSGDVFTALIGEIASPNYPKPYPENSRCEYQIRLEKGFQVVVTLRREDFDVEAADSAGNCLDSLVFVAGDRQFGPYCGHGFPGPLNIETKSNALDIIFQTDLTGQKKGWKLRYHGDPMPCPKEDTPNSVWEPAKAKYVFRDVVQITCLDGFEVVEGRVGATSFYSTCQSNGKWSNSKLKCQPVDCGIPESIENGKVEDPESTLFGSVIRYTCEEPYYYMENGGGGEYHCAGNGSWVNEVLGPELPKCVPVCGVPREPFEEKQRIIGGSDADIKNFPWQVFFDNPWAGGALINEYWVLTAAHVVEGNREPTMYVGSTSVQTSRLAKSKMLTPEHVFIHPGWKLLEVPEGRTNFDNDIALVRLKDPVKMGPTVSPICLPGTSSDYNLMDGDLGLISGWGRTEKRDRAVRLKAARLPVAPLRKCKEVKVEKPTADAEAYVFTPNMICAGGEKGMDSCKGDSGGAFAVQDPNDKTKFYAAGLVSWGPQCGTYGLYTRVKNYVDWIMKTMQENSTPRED
T1 sequence (P00736 18-705 partner): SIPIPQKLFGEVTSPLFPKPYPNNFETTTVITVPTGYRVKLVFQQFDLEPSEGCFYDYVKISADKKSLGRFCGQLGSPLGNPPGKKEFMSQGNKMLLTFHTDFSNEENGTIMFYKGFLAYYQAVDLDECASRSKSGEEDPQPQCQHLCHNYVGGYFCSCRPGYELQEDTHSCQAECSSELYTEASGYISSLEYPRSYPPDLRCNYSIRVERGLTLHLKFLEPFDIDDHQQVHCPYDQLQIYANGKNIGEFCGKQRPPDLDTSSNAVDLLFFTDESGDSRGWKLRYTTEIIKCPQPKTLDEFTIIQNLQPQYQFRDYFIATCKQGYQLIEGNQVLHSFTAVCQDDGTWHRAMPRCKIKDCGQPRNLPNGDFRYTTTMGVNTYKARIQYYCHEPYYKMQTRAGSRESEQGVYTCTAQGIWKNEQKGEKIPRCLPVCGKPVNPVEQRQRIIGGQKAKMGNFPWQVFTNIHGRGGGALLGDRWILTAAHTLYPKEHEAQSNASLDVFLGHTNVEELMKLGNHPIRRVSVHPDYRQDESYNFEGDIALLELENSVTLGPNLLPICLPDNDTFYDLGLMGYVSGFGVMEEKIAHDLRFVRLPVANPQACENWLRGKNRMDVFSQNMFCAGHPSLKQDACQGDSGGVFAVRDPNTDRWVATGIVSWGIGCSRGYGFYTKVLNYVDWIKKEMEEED
T1 sequence (P02745 23-245 partner): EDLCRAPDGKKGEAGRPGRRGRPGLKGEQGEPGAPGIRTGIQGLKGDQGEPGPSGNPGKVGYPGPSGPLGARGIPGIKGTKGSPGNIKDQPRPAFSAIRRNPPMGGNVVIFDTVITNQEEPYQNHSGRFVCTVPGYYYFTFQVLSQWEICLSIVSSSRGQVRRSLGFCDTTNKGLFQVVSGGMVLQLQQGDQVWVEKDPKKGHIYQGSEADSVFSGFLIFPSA
T1 sequence (P02746 28-253 partner): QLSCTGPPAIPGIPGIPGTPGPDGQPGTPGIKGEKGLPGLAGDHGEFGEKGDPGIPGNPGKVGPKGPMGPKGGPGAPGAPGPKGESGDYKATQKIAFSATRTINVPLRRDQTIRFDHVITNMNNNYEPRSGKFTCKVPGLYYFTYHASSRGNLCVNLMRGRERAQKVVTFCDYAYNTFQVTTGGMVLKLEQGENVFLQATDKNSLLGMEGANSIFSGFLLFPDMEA
T1 sequence (P02747 29-245 partner): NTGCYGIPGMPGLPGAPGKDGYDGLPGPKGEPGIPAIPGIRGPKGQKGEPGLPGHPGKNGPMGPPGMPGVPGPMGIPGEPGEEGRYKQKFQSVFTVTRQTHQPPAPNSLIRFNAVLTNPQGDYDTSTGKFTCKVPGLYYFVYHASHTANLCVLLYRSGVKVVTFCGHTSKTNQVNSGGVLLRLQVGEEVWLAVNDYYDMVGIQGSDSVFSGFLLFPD
From the text: as §1

complement system = conditions: known from the literature; cited from earlier work

SMILES | Shunt Inhibition 036* Wells [1] | C-Late 035* Wells [2] | Cl 026* Wells (activated human C1) | activity as a complement inhibitor (complement system)
Cc1ccc(S(=O)(=O)Nc2ccc(S(=O)(=O)O)c3cc(S(=O)(=O)O)cc(S(=O)(=O)O)c23)cc1NS(=O)(=O)c1cccc(NC(=O)Nc2cccc(S(=O)(=O)Nc3cc(S(=O)(=O)Nc4ccc(S(=O)(=O)O)c5cc(S(=O)(=O)O)cc(S(=O)(=O)O)c45)ccc3C)c2)c1 [8,8'-[Ureylenebis[(m-phenylenesulfonylimino) (4-methyl-3,1-phenylenesulfonyl)imino]]di-1,3,5-naphthalenetrisulfonic acid, hexasodium salt] | N | +1 Wells | +3 Wells | –
O=C(Nc1cccc(S(=O)(=O)Nc2cccc(S(=O)(=O)Nc3cc(S(=O)(=O)O)cc4cc(S(=O)(=O)O)cc(S(=O)(=O)O)c34)c2)c1)Nc1cccc(S(=O)(=O)Nc2cccc(S(=O)(=O)Nc3cc(S(=O)(=O)O)cc4cc(S(=O)(=O)O)cc(S(=O)(=O)O)c34)c2)c1 [8,8'-[Ureylenebis[[(1,3-phenylenesulfonylimino)-1,3-phenylenesulfonyl]imino]]di-1,3,6-naphthalenetrisulfonic acid, hexasodium salt] | +1 Wells | +5 Wells | +4 Wells | –
Cc1ccc(NC(=O)Nc2ccc(C)c(S(=O)(=O)Nc3ccc(C)c(S(=O)(=O)Nc4cc(S(=O)(=O)[O-])cc5cc(S(=O)(=O)[O-])cc(S(=O)(=O)[O-])c45)c3)c2)cc1S(=O)(=O)Nc1ccc(C)c(S(=O)(=O)Nc2cc(S(=O)(=O)[O-])cc3cc(S(=O)(=O)[O-])cc(S(=O)(=O)[O-])c23)c1.[Na+].[Na+].[Na+].[Na+].[Na+].[Na+] [8,8'-[Ureylenebis[[[(6-methyl-3,1-phenylene)sulfonyl]imino]-[[(6-methyl-3,1-phenylene)sulfonyl]imino]]]di-1,3,6-naphthalenetrisulfonic acid, hexasodium salt] | N | +1 Wells | +3 Wells | –
Cc1ccc(C(=O)Nc2ccc(S(=O)(=O)O)c3cc(S(=O)(=O)O)cc(S(=O)(=O)O)c23)cc1NC(=O)c1cccc(NC(=O)Nc2cccc(C(=O)Nc3cc(C(=O)Nc4ccc(S(=O)(=O)O)c5cc(S(=O)(=O)O)cc(S(=O)(=O)O)c45)ccc3C)c2)c1 [Suramin, reference compound] | – | +2 Wells | +4 Wells | moderately active
